Key:
[1] = test system: clinical isolates of Listeria monocytogenes; test: Microbial inhibitory studies with clinical isolates (microtitre well plate method, plate counts); format: cell-based
Text: Referring now to FIGS. 8 through 12, in light of the microbial inhibitory effect shown with Listeria monocytogenese, we obtained clinical isolates of Listeria monocytogenes from the International Life Science Institute Database, Cornell University and tested LM at the same concentrations as listed above with the clinical isolate. Inhibitory effects against clinical isolates of Listeria monocytogenese are shown in FIGS. 8, 9, 10, 11 and 12 (inhibition shown is percent growth inhibition). The clinical isolates are described in Table 5.
Still referring to FIGS. 8 through 12, microbial inhibitory studies were carried out in microtitre well plate method. Cultures were grown in appropriate microbial media with antibiotics and diluted to 10^5 colony forming units (CFU) per mL. Cultures (0.5 mL or 10^2.5 CFU total) were added to microtiter wells and an initial optical density (OD) at 600 nm was recorded. The studies were conducted by adding different concentrations of LML as described above with appropriate controls (media only, media plus cells, media plus cells and 0.1% Polysorbate 80, same amount of ethanol as in the vol of LML plus 0.1% polysorbate 80 with cells). Plate counts of all controls and treatments were done. For each strain and treatment, the experiments were done 6 times and replicated at least once. Data shown has a coefficient of variation of less than 10%. […]

Staphyloccus suis = test: Microbial growth inhibition (microtiter OD 600 nm, 48 hours); format: cell-based; details: gram positive, FIG. 7
Experimental: (§1) Referring now to FIG. 7 and Table 4, the microbial inhibitory characteristics of LML synthesized and purified as described above, were investigated against Enterococcus faecalis (ATCC 700802), Listeria monocytogenes, Staphyloccus suis, Escherichia coli H7P:0157H7 (ATCC 35150), Salmonella typhimurium (ATCC 700720) and Klebsiella pneumoniae (ATCC 700721). Cultures were grown in appropriate microbial media with antibiotics and diluted to 10^5 colony forming units (CFU) per mL. Cultures (0.5 mL or 10^2.5 CFU total) were added to microtiter wells and an initial optical density (OD) at 600 nm was recorded. For treatments, LML in concentrations ranging from 0.001 to 0.1% was added to individual microtiter wells and the OD was again measured after 48 hours. Controls were treated similarly, but without the addition of LML. Percent growth inhibition was determined by comparing the OD reading for the controls and treatments.

[2] = test system: Salmonella typhimurium (ATCC 700720); test: as above; format: cell-based; details: gram negative; LML 0.001 to 0.1%; FIG. 7
Experimental: as §1

[3] = test system: Escherichia coli H7P:0157H7 (ATCC 35150); test: as above; format: cell-based; details: gram negative; LML 0.001 to 0.1%; FIG. 7
Experimental: as §1

[4] = test system: Klebsiella pneumoniae (ATCC 700721); test: as above; format: cell-based; details: gram negative; LML 0.001 to 0.1%; FIG. 7
Experimental: as §1

Listeria monocytogenes = test: as above; format: cell-based; details: gram positive, FIG. 7
Experimental: as §1

[5] = test system: Enterococcus faecalis (ATCC 700802); test: as above; format: cell-based; details: gram positive, FIG. 7
Experimental: as §1

[6] = Experimental: Aliquots, 600 μL, of each filtered sample were dried by a Savant SpeedVac system. The dry sugar in each tube was re-suspended in 600 μL de-ionized water. […] The amount of sugar in each sample was determined by comparing peak areas to the lactose-in-water control.

## lactose monolaurate [LML]
[1]; LML 1.0 mg/mL, each strain (J1-177, C1-056, N3-013, R2-499, N1-227), with 0.1% Polysorbate 80, versus control with ethanol and tween
  percent growth inhibition: 70-90%
[1]; plate counts of treatments compared to the controls
  type of inhibition (plate counts): bacterial static
Staphyloccus suis; LML 0.005% and less
  growth inhibition: limited inhibition
Staphyloccus suis; LML 0.1% (1 mg/mL)
  growth inhibition: inhibited
[2]
  susceptibility to inhibition: minimal susceptibility
[3]
  susceptibility to inhibition: minimal susceptibility
[4]
  susceptibility to inhibition: minimal susceptibility
Listeria monocytogenes; LML 0.005% and less
  growth inhibition: limited inhibition
Listeria monocytogenes; LML 0.1% (1 mg/mL)
  growth inhibition: inhibited
[5]; LML 0.005% and less
  growth inhibition: limited inhibition
[5]; LML 0.1% (1 mg/mL)
  growth inhibition: inhibited

## OC[C@H]1O[C@@](CO)(O[C@H]2O[C@H](CO)[C@@H](O)[C@H](O)[C@H]2O)[C@@H](O)[C@@H]1O [sucrose]
[6]
  solubility in 2M2B: 700-800 micromol/L solvent
  solubility in the other solvents: 50-200 micromol/L solvent
